Data published in article PMC10544018 (Journal of Medicinal Chemistry, 2023).

Key:
VCB protein = molecular target: T1, VCB protein (Homo sapiens, UniProt P40337); assay: Competitive fluorescence polarization (FP) binding assay, displacement of FAM-labeled HIF-1α peptide; settings: for Kd: dissociation constant, determined by FP, mean ± S.E.M., back-calculated from IC50; for IC50: mean IC50 values obtained from the FP assay, read-out: IC50 ± S.E.M, FP assay
T1 construct: A plasmid containing pVHL54–213 with an N-terminal His6 tag; His6 (N, cleaved yes); made in house; host or cells: Escherichia coli BL21 (DE3)
Experimental: Binding of a ligand to the HIF binding site of VHL displaces a fluorescein-labeled, 19-mer HIF-1α oligopeptide, leading to a change in polarization of emitted light upon excitation of the competing fluorescent probe.
All components were dissolved from stock solutions using 100 mM Bis–Tris, 100 mM NaCl, 1 mM DTT, pH 7.0, to yield a final assay volume of 15 μL. DMSO was added as appropriate to ensure a final concentration of 2% (v/v). Control wells containing VCB and JC9 with no compound (zero displacement), or JC9, in the absence of protein (maximum displacement) were also included to allow for normalization. Percentage displacement values were obtained by normalization of controls and were plotted against log[compound]. The IC50 values were determined for each titration using non-linear regression analysis with Prism GraphPad (Table S1). Dissociation constants Kd for the compound–VCB interaction were back-calculated from the measured IC50 values by using a displacement binding model as described.[16],[64]

[1] = Log D7.4 measurement by chromatographic method; assay type: physicochemical; settings: experimental distribution coefficient at pH 7.4; read-out: e log D7.4
Experimental: (§1) Both were experimentally obtained employing HPLC-based protocols.[39],[40] […] PPB values were determined in view of how they could impact future pharmacokinetic studies of compounds as VHL inhibitors, or once conjugated into bifunctional PROTACs, for which PPB can be a limiting factor.
The determination of the log D7.4 values was performed by a chromatographic method as described previously.[41],[62] […] Subsequently, the mean retention times (n = 2) of the analytes were taken to calculate their log D7.4 values.

human serum albumin = human serum albumin (Homo sapiens, UniProt P02768); assay: PPB studies on HSA HPLC column; assay type: in vitro ADME; settings: CHIRALPAK HSA HPLC column (human serum albumin); experimentally determined percentage of the compound bound to human serum albumin
Experimental: as §1
PPB was estimated by correlating the logarithmic retention times of the analytes on a […] HSA 50 × 3 mm, 5 μm column with the literature-known % PPB values (converted into log K values) of the following drugs: warfarin, ketoprofen, budesonide, nizatidine, indomethacin, acetylsalicylic acid, carbamazepine, piroxicam, nicardipine, and cimetidine.[63] Samples were dissolved in MeCN/DMSO 9:1 to achieve a final concentration of 0.5 mg/mL. The mobile phase A was 50 mM ammonium acetate adjusted to pH 7.4 with 10% NaOH, while mobile phase B was iPrOH. […] After injecting 3 μL of the sample, a linear gradient from 100% A to 30% iPrOH in 5.4 min was applied. From 5.4 to 18 min, 30% iPrOH was kept, followed by switching back to 100% A in 1.0 min and a re-equilibration time of 6 min.

| SMILES | Kd (VCB protein) | IC50 (VCB protein) | chromatographic logD [1] | fraction unbound at 0.5 mg/mL (human serum albumin) |
| --- | --- | --- | --- | --- |
| COc1cc(-c2scnc2C)c(OC)cc1CNC(=O)[C@@H]1C[C@@H](O)CN1C(=O)[C@@H](NC(=O)C1(C#N)CC1)C(C)(C)C [Compound 15, (2S,4R)-1-((S)-2-(1-Cyanocyclopropane-1-carboxamido)-3,3-dimethylbutanoyl)-N-(2,5-dimethoxy-4-(4-methylthiazol-5-yl)benzyl)-4-hydroxypyrrolidine-2-carboxamide] | 1270 ± 150 nM | 6530 ± 428 nM | 1.9 | 0.14 |
| Cc1cc(-c2scnc2C)ccc1[C@H](C)NC(=O)[C@@H]1C[C@@H](O)CN1C(=O)[C@@H](NC(=O)C1(C#N)CC1)C(C)(C)C [Compound 24, (2S,4R)-1-((S)-2-(1-Cyanocyclopropane-1-carboxamido)-3,3-dimethylbutanoyl)-4-hydroxy-N-((S)-1-(2-methyl-4-(4-methylthiazol-5-yl)phenyl)ethyl)pyrrolidine-2-carboxamide] | 86 ± 20 nM | 329 ± 51 nM | 2.3 | 0.12 |
| Cc1ncsc1-c1ccc([C@H](C)NC(=O)[C@@H]2C[C@@H](O)CN2C(=O)[C@@H](NC(=O)C2(C#N)CC2)C(C)(C)C)cc1F [Compound 25, (2S,4R)-1-((S)-2-(1-Cyanocyclopropane-1-carboxamido)-3,3-dimethylbutanoyl)-N-((S)-1-(3-fluoro-4-(4-methylthiazol-5-yl)phenyl)ethyl)-4-hydroxypyrrolidine-2-carboxamide] | 186 ± 40 nM | 718 ± 95 nM | 2.2 | 0.12 |
| Cc1ncsc1-c1ccc(CNC(=O)[C@@H]2C[C@@H](O)CN2C(=O)[C@@H](NC(=O)C2(C#N)CC2)C(C)(C)C)cc1Cl [Compound 9, (2S,4R)-N-(3-Chloro-4-(4-methylthiazol-5-yl)benzyl)-1-((S)-2-(1-cyanocyclopropane-1-carboxamido)-3,3-dimethylbutanoyl)-4-hydroxypyrrolidine-2-carboxamide] | 220 ± 11 nM | 1030 ± 127 nM | 2.1 | 0.09 |
| Cc1ncsc1-c1ccc(CNC(=O)[C@@H]2C[C@@H](O)CN2C(=O)[C@@H](NC(=O)C2(C#N)CC2)C(C)(C)C)c(O)c1F [Compound 20, (2S,4R)-1-((S)-2-(1-Cyanocyclopropane-1-carboxamido)-3,3-dimethylbutanoyl)-N-(3-fluoro-2-hydroxy-4-(4-methylthiazol-5-yl)benzyl)-4-hydroxypyrrolidine-2-carboxamide] | 141 ± 8 nM | 727 ± 7 nM | 1.9 | 0.11 |
| Cc1ncsc1-c1cc2c(cc1F)[C@@H](NC(=O)[C@@H]1C[C@@H](O)CN1C(=O)[C@@H](NC(=O)C1(C#N)CC1)C(C)(C)C)CC2 [Compound 35, (2S,4R)-1-((S)-2-(1-Cyanocyclopropane-1-carboxamido)-3,3-dimethylbutanoyl)-N-((S)-6-fluoro-5-(4-methylthiazol-5-yl)-2,3-dihydro-1H-inden-1-yl)-4-hydroxypyrrolidine-2-carboxamide] | 4040 ± 530 nM | 16600 ± 2130 nM | 2.3 | 0.1 |
| COc1c(CNC(=O)[C@@H]2C[C@@H](O)CN2C(=O)[C@@H](NC(=O)C2(C#N)CC2)C(C)(C)C)ccc(-c2scnc2C)c1F [Compound 21, (2S,4R)-1-((S)-2-(1-Cyanocyclopropane-1-carboxamido)-3,3-dimethylbutanoyl)-N-(3-fluoro-2-methoxy-4-(4-methylthiazol-5-yl)benzyl)-4-hydroxypyrrolidine-2-carboxamide] | – | – | 2.1 | 0.11 |
| COc1cc(CNC(=O)[C@@H]2C[C@@H](O)CN2C(=O)[C@@H](NC(=O)C2(C#N)CC2)C(C)(C)C)ccc1-c1scnc1C [Compound 7, (2S,4R)-1-((S)-2-(1-Cyanocyclopropane-1-carboxamido)-3,3-dimethylbutanoyl)-4-hydroxy-N-(3-methoxy-4-(4-methylthiazol-5-yl)benzyl)pyrrolidine-2-carboxamide] | 163 ± 22 nM | 742 ± 14 nM | 1.9 | 0.13 |
| Cc1ncsc1-c1ccc(CNC(=O)[C@@H]2C[C@@H](O)CN2C(=O)[C@@H](NC(=O)C2(C#N)CC2)C(C)(C)C)c2ncccc12 [Compound 23, (2S,4R)-1-((S)-2-(1-Cyanocyclopropane-1-carboxamido)-3,3-dimethylbutanoyl)-4-hydroxy-N-((5-(4-methylthiazol-5-yl)quinolin-8-yl)methyl)pyrrolidine-2-carboxamide] | 330 ± 93 nM | 1670 ± 375 nM | 1.7 | 0.12 |
| Cc1ncsc1-c1cc2c(cc1F)[C@@H](NC(=O)[C@@H]1C[C@@H](O)CN1C(=O)[C@@H](NC(=O)C1(F)CC1)C(C)(C)C)CC2 [Compound 36, (2S,4R)-N-((S)-6-Fluoro-5-(4-methylthiazol-5-yl)-2,3-dihydro-1H-inden-1-yl)-1-((S)-2-(1-fluorocyclopropane-1-carboxamido)-3,3-dimethylbutanoyl)-4-hydroxypyrrolidine-2-carboxamide] | 2550 ± 510 nM | 10600 ± 2030 nM | 2.3 | – |
| Cc1ncsc1-c1ccc(CNC(=O)[C@@H]2C[C@@H](O)CN2C(=O)[C@@H](NC(=O)C2(F)CC2)C(C)(C)C)cc1 [Compound 38, (2S,4R)-1-((S)-2-(1-Fluorocyclopropane-1-carboxamido)-3,3-dimethylbutanoyl)-4-hydroxy-N-(4-(4-methylthiazol-5-yl)benzyl)pyrrolidine-2-carboxamide, reference compound] | – | – | 1.8 | 0.14 |

Continued, values first:

| Kd (VCB protein) | IC50 (VCB protein) | chromatographic logD [1] | fraction unbound at 0.5 mg/mL (human serum albumin) | SMILES |
| --- | --- | --- | --- | --- |
| 528 ± 16 nM | 2740 ± 122 nM | 2.2 | 0.1 | Cc1cc(-c2scnc2C)c(C)cc1CNC(=O)[C@@H]1C[C@@H](O)CN1C(=O)[C@@H](NC(=O)C1(C#N)CC1)C(C)(C)C [Compound 14, (2S,4R)-1-((S)-2-(1-Cyanocyclopropane-1-carboxamido)-3,3-dimethylbutanoyl)-N-(2,5-dimethyl-4-(4-methylthiazol-5-yl)benzyl)-4-hydroxypyrrolidine-2-carboxamide] |
| 149 ± 28 nM | 668 ± 33 nM | 2 | 0.1 | Cc1cc(-c2scnc2C)ccc1CNC(=O)[C@@H]1C[C@@H](O)CN1C(=O)[C@@H](NC(=O)C1(C#N)CC1)C(C)(C)C [Compound 2, (2S,4R)-1-((S)-2-(1-Cyanocyclopropane-1-carboxamido)-3,3-dimethylbutanoyl)-4-hydroxy-N-(2-methyl-4-(4-methylthiazol-5-yl)benzyl)pyrrolidine-2-carboxamide] |
| 322 ± 38 nM | 1650 ± 100 nM | 2.3 | 0.09 | Cc1ncsc1-c1ccc(CNC(=O)[C@@H]2C[C@@H](O)CN2C(=O)[C@@H](NC(=O)C2(C#N)CC2)C(C)(C)C)c(C)c1C [Compound 18, (2S,4R)-1-((S)-2-(1-Cyanocyclopropane-1-carboxamido)-3,3-dimethylbutanoyl)-N-(2,3-dimethyl-4-(4-methylthiazol-5-yl)benzyl)-4-hydroxypyrrolidine-2-carboxamide] |
| 4110 ± 560 nM | 21100 ± 2180 nM | 2.2 | 0.1 | Cc1cc(-c2scnc2C)cc(C)c1CNC(=O)[C@@H]1C[C@@H](O)CN1C(=O)[C@@H](NC(=O)C1(C#N)CC1)C(C)(C)C [Compound 10, (2S,4R)-1-((S)-2-(1-Cyanocyclopropane-1-carboxamido)-3,3-dimethylbutanoyl)-N-(2,6-dimethyl-4-(4-methylthiazol-5-yl)benzyl)-4-hydroxypyrrolidine-2-carboxamide] |
| 245 ± 20 nM | 1140 ± 131 nM | 2.2 | 0.09 | Cc1ncsc1-c1ccc(CNC(=O)[C@@H]2C[C@@H](O)CN2C(=O)[C@@H](NC(=O)C2(C#N)CC2)C(C)(C)C)c(Cl)c1 [Compound 5, (2S,4R)-N-(2-Chloro-4-(4-methylthiazol-5-yl)benzyl)-1-((S)-2-(1-cyanocyclopropane-1-carboxamido)-3,3-dimethylbutanoyl)-4-hydroxypyrrolidine-2-carboxamide] |
